Data from publication PMC10004777 (Molecules, 2023).

Experiments:
[1] = test system: MCF-7 breast cancer cells; assay: Cell viability (MTT) assay, MCF-7; format: cell-based; settings: for anti-proliferation activity on MCF-7 compared with GAA: MCF-7, 48 h
Protocol: MCF-7 is a commonly used tumor cell line.
(§1) The cell lines present in this study were obtained from Procell Life Science & Technology Co. Ltd. MCF-7, HepG2 and SJSA-1 cells were cultured in DMEM medium (DMEM, Gibco) supplemented with 10% fetal bovine serum (FBS, Gibco), 1% penicillin-streptomycin (Hyclone) at 37℃ in a humid environment with 5% CO2. HK-2 cells were cultured in DMEM/F12 (1:1) medium and placed in incubators in the same environment.
(§2) Cell viability was determined by MTT assay. MCF-7, HepG2, SJSA-1 and HK-2 cells (6 × 10^3 cells /well) were seeded in 96-well plates with serum-free medium for 24 h. […] After 48 or 72 h, 10 μL MTT (5 mg/mL, Beyotime) was added and incubated at 37 °C for 4 h. Then 100 μL of lysate was added. After complete dissolution of the crystal, the absorbance was measured at 540 nm and expressed as the average percentage of absorbance between treated and control cells. The value for control cells was set at 100%. Cell survival rate was calculated as the ratio of the absorbance of the cells and negative control after minus the blank absorbance respectively.

HK-2 cells = assay: Cell viability (MTT) assay, HK-2 normal cells (cytotoxicity); format: cell-based
Protocol: as §1, §2

HepG2 cells = assay: Cell viability (MTT) assay, HepG2; format: cell-based; settings: for anti-proliferation activity on HepG2 (in words): HepG2, 48 h
Protocol: (§3) To investigate the selectivity of these derivatives towards different tumor cell lines, we also selected HepG2 and osteosarcoma cell line SJSA-1 cells to evaluate the anti-proliferation activity of the derivatives. […] Except for compounds A2 and A11, the effects of other compounds on SJSA-1 were not strong.
as §1, §2

[2] = test system: osteosarcoma cell line SJSA-1; assay: Cell viability (MTT) assay, SJSA-1; format: cell-based
Protocol: as §3, §1, §2

Row | SMILES | Viability of Cells (% of Control) ([1]; 25 µM) | Viability of Cells (% of Control) ([1]; 100 µM) | anti-proliferation activity on MCF-7 compared with GAA [1] | toxicity to HK2 cells (in words) (HK-2 cells) | Viability of Cells (% of Control) (HK-2 cells; 50 µM) | Viability of Cells (% of Control) (HK-2 cells; 100 µM) | melting point [°C] | Viability of Cells (% of Control) (HepG2 cells; 25 µM) | Viability of Cells (% of Control) (HepG2 cells; 50 µM) | anti-proliferation activity on HepG2 (in words) (HepG2 cells) | Viability of Cells (% of Control) ([2]; 50 µM) | Viability of Cells (% of Control) ([2]; 100 µM) | Viability of Cells (% of Control) ([1]; 50 µM) | anti-proliferation activity on SJSA-1 (in words) ([2]; SJSA-1, 72 h) | inhibition at 50 µM (HepG2 cells; Homo sapiens, HepG2, 50 µM (printed: below 50 µM), 48 h, read-out: inhibition rate of HepG2) [%]
1 | C[C@H](CC(=O)C[C@@H](C)[C@H]1C[C@H](O)[C@@]2(C)C3=C(C(=O)C[C@]12C)[C@@]1(C)CCC(=O)C(C)(C)[C@@H]1C[C@@H]3O)C(=O)NCc1ccc(Cl)cc1 [Compound A7, (4-Chlorobenzyl)-(7β,15α,25R)-7,15-Dihydroxy-3,11,23-Trioxolanost-8-en-26-oic Amide] | 73.5 ± 4.0 % of Control | 75.1 ± 13.2 % of Control | significant anti-proliferation activities | some toxicity | 86.2 ± 3.7 % of Control | 81.3 ± 3.3 % of Control | 188.6 to 189.4 | 73.8 ± 1.2 % of Control | 53.4 ± 1.0 % of Control | potent anti-proliferation activity | 81.6 ± 2.8 % of Control | 77.1 ± 4.6 % of Control |  |  | 
2 | C[C@H](CC(=O)C[C@@H](C)[C@H]1C[C@H](O)[C@@]2(C)C3=C(C(=O)C[C@]12C)[C@@]1(C)CCC(=O)C(C)(C)[C@@H]1C[C@@H]3O)C(=O)NCc1cc(Cl)cc(Cl)c1 [Compound A8, (3,5-Dichlorobenzyl)-(7β,15α,25R)-7,15-Dihydroxy-3,11,23-Trioxolanost-8-en-26-oic Amide] | 63.3 ± 8.3 % of Control | 39.4 ± 5.8 % of Control | significant anti-proliferation activities |  | 107.8 ± 14.3 % of Control | 91.0 ± 2.4 % of Control | 182.6 to 183.8 | 54.2 ± 2.0 % of Control | 48.1 ± 1.5 % of Control | potent anti-proliferation activity | 92.4 ± 1.4 % of Control | 80.4 ± 4.7 % of Control |  |  | 
3 | C[C@H](CC(=O)C[C@@H](C)[C@H]1C[C@H](O)[C@@]2(C)C3=C(C(=O)C[C@]12C)[C@@]1(C)CCC(=O)C(C)(C)[C@@H]1C[C@@H]3O)C(=O)NC1Cc2ccccc2C1 [Compound A9, (2,3-Dihydro-1H-inden-2-yl)-(7β,15α,25R)-7,15-Dihydroxy-3,11,23-Trioxolanost-8-en-26-oic Amide] | 87.5 ± 7.6 % of Control | 40.3 ± 7.8 % of Control | significant anti-proliferation activities | some toxicity | 79.0 ± 2.9 % of Control | 80.1 ± 2.8 % of Control | 199.7 to 200.3 | 64.2 ± 1.4 % of Control | 52.4 ± 2.1 % of Control | potent anti-proliferation activity | 99.2 ± 2.6 % of Control | 89.6 ± 3.8 % of Control | 53.3 ± 6.9 % of Control |  | 
4 | Cc1ccc(CCNC(=O)[C@H](C)CC(=O)C[C@@H](C)[C@H]2C[C@H](O)[C@@]3(C)C4=C(C(=O)C[C@]23C)[C@@]2(C)CCC(=O)C(C)(C)[C@@H]2C[C@@H]4O)cc1 [Compound A10, (4-Methylphenethyl)-(7β,15α,25R)-7,15-Dihydroxy-3,11,23-Trioxolanost-8-en-26-oic Amide] | 120.8 ± 4.8 % of Control | 104.1 ± 2.2 % of Control |  |  | 110.9 ± 9.6 % of Control | 91.1 ± 5.5 % of Control | 221.9 to 223 | 57.9 ± 0.5 % of Control | 58.8 ± 1.4 % of Control |  | 80.0 ± 2.7 % of Control | 75.6 ± 4.8 % of Control | 118.3 ± 6.0 % of Control |  | 
5 | C[C@H](CC(=O)C[C@@H](C)[C@H]1C[C@H](O)[C@@]2(C)C3=C(C(=O)C[C@]12C)[C@@]1(C)CCC(=O)C(C)(C)[C@@H]1C[C@@H]3O)C(=O)NCCc1ccc(F)cc1 [Compound A11, (4-Fluorophenethyl)-(7β,15α,25R)-7,15-Dihydroxy-3,11,23-Trioxolanost-8-en-26-oic Amide] | 100.5 ± 2.5 % of Control | 58.4 ± 5.5 % of Control |  |  | 89.8 ± 9.6 % of Control | 86.9 ± 2.7 % of Control | 188.1 to 189 | 78.5 ± 3.0 % of Control | 69.1 ± 2.0 % of Control |  | 56.1 ± 8.7 % of Control | 41.9 ± 3.1 % of Control | 101.8 ± 0.2 % of Control | some selectivity for SJSA-1 | 
6 | C[C@H](CC(=O)C[C@@H](C)[C@H]1C[C@H](O)[C@@]2(C)C3=C(C(=O)C[C@]12C)[C@@]1(C)CCC(=O)C(C)(C)[C@@H]1C[C@@H]3O)C(=O)NCCc1ccc(Cl)cc1 [Compound A12, (4-Chlorophenethyl)-(7β,15α,25R)-7,15-Dihydroxy-3,11,23-Trioxolanost-8-en-26-oic Amide] | 119.0 ± 3.4 % of Control | 102.9 ± 3.8 % of Control |  |  | 124.1 ± 2.6 % of Control | 111.2 ± 6.5 % of Control | 195.4 to 196.1 | 29.1 ± 0.4 % of Control | 25.6 ± 0.8 % of Control |  | 73.5 ± 1.2 % of Control | 65.5 ± 1.5 % of Control | 110.5 ± 6.0 % of Control |  | 74.4
7 | C[C@H](CC(=O)C[C@@H](C)[C@H]1C[C@H](O)[C@@]2(C)C3=C(C(=O)C[C@]12C)[C@@]1(C)CCC(=O)C(C)(C)[C@@H]1C[C@@H]3O)C(=O)N1CCN(c2ccccc2)CC1 [Compound A15, (4-Phenylpiperazin-1-yl)-(7β,15α,25R)-7,15-Dihydroxy-3,11,23-Trioxolanost-8-en-26-oic Amide] | 74.3 ± 5.2 % of Control | 66.5 ± 1.4 % of Control | significant anti-proliferation activities |  | 123.3 ± 5.5 % of Control | 111.0 ± 8.7 % of Control | 229.4 to 229.9 | 77.1 ± 2.1 % of Control | 99.3 ± 0.2 % of Control | weaker anti-proliferation effect | 75.9 ± 0.9 % of Control | 83.5 ± 0.8 % of Control | 70.4 ± 1.5 % of Control |  | 
